# From patent publication US7723417B2, “Fluorochemical composition and method for treating a substrate therewith” (3M Innovative Properties Company, priority 2004, dated 2010)
# Structures can show the parent of a compound that is named as a salt.
# Assay: Water solubility of an additive
# Assay type: physicochemical
# Conditions: 25° C., demineralized water
# Protocol: The water solubility of an additive was determined at ambient conditions (25° C.) in demineralized water. Measured quantities of additive and demineralized water were combined and shaken for up to two hours. The additive was deemed soluble if a clear solution resulted; the additive was otherwise deemed insoluble. The water solubility of an additive is the maximum concentration of additive producing a clear solution in water.
row,Solubility H2O,Compound
1,<0.1 w %,"CCCCOC(=O)CC(CC(=O)OCCCC)(OC(C)=O)C(=O)OCCCC [ATBC, Acetyl tributyl citrate]"
2,<0.05 w %,"CCCCOC(=O)CC(O)(CC(=O)OCCCC)C(=O)OCCCC [TBC, Tributyl citrate]"
3,6 w %,"COC(=O)CC(O)(CC(=O)OC)C(=O)OC [TMC, Trimethyl citrate]"
4,0.4 w %,"C=C(C)C(=O)OCC(CO)OC(=O)C(=C)C (stereo not drawn) [GDM, Glycerol dimethacrylate]"
5,3 w %,C4H9(OC3H6)3—OH [DTPnB]
6,>10 w %,"CCOC(=O)CC(O)C(=O)OCC (stereo not drawn) [DEM, Diethyl malate]"
7,0.2 w %,"CCCCOC(=O)CC(O)C(=O)OCCCC (stereo not drawn) [DBM, Dibutyl malate]"
8,0.8 w %,"CCCCOC(=O)C(O)C(O)C(=O)OCCCC (stereo not drawn) [DBT, Dibutyl tartarate]"
9,>10 w %,"CC(C)OC(=O)C(O)C(O)C(=O)OC(C)C (stereo not drawn) [DIPT, Diisopropyl tartarate]"
